Legend:
[1] = test system: FM1 r(CUG)10 (FM1 CUG × 10, r10FAM), annealed (RNA, repeat, fluorescein (fam) covalently incorporated between C13 and U14 (5th CUG repeat, hairpin loop)) CUGCUGCUGCUGCUGCUGCUGCUGCUGCUG; assay: UV melting, 260 nm; details: 100 mM NaCl; 10 mM sodium phosphate, pH 7.0; 1.5 µM RNA; L/M = 1; Tm 55.8 to 57.4 °C
[2] = test system: native r(CUG)10 (r10) (RNA, repeat) CUGCUGCUGCUGCUGCUGCUGCUGCUGCUG; assay: UV melting, 260 nm; details: 100 mM NaCl, 10 mM sodium phosphate, pH 7.0, 1.5 µM RNA, L/M = 1, Tm 55.8 to 57.4 °C buffer, Tm 57.5 (L/M 0), 58.7 (L/M 1), 60.7 °C (L/M 16)
[3] = test system: native r(CUG)7 (r7) (RNA, repeat) CUGCUGCUGCUGCUGCUGCUG; assay: UV melting, 260 nm; details: 100 mM NaCl; 10 mM sodium phosphate, pH 7.0; 1.5 µM RNA; L/M = 1; Tm 59.8 to 64.0 °C
[4] = test system: FM1 r(CUG)10 (FM1 CUG × 10, r10FAM), annealed (RNA, repeat, fluorescein (fam) covalently incorporated between C13 and U14 (5th CUG repeat, hairpin loop)) CUGCUGCUGCUGCUGCUGCUGCUGCUGCUG; assay: fluorescence melting of internal FAM; details: none stated; nuclease-free water; 200 nM RNA; L/M = 1; Tm 52.2 to 54.9 °C; lower Tm at L/M > 1
[5] = test system: FM1 r(CUG)10 (FM1 CUG × 10, r10FAM), annealed (RNA, repeat, fluorescein (fam) covalently incorporated between C13 and U14 (5th CUG repeat, hairpin loop)) CUGCUGCUGCUGCUGCUGCUGCUGCUGCUG; assay: fluorescence microplate titration, sigmoidal fit; details: none stated; nuclease-free water, room temperature; 200 nM RNA; apparent
[6] = test system: FM1 r(CUG)10 (FM1 CUG × 10, r10FAM), annealed (RNA, repeat, fluorescein (fam) covalently incorporated between C13 and U14 (5th CUG repeat, hairpin loop)) CUGCUGCUGCUGCUGCUGCUGCUGCUGCUG; assay: fluorometer fluorescence titration, sigmoidal fit; details: none stated; nuclease-free water, 25 °C; 200 nM RNA; apparent; Langmuir fit 671 nM, quadratic fit 247 nM

ΔTm [1]	binding [2]	ΔTm [3] [°C]	ΔTm [4] [°C]	Kd [5] [nM]	Kd [6] [nM]	SMILES
~ 1.5 °C	yes	4	2.7	928	945	CN[C@@H]1[C@@H](O)[C@@H](O[C@@H]2[C@@H](O)[C@H](O[C@H]3OC(CN)=CC[C@H]3N)[C@@H](N)C[C@H]2N)OC[C@]1(C)O
				1054		NC[C@@H]1O[C@H](O[C@H]2[C@@H](O)[C@H](O[C@@H]3[C@@H](O)[C@H](N)C[C@H](N)[C@H]3O[C@H]3O[C@H](CN)[C@@H](O)[C@H](O)[C@H]3N)O[C@@H]2CO)[C@H](N)[C@@H](O)[C@@H]1O
				1555		NC[C@H]1O[C@H](O[C@H]2[C@H](O)[C@@H](O[C@H]3O[C@H](CO)[C@@H](O)[C@H](N)[C@H]3O)[C@H](N)C[C@@H]2N)[C@H](O)[C@@H](O)[C@@H]1O

Reference: PMC8955525 (2022)
